Results reported in patent publication US20090209535A1, “6-ETHER/THIOETHER-PURINES AS TOPOISOMERASE II CATALYTIC INHIBITORS AND THEIR USE IN THERAPY” (TOPOTARGET A/S, priority 2005, published 2009).

Tests used:
topoisomerase II α [1] = molecular target: T1, topoisomerase II α (Homo sapiens, UniProt P11388); assay: Topoisomerase II retention on DNA/streptavidin beads (salt-stable complex); type: biochemical; set-up: made in house; host or cells: yeast (over-expressing yeast cells)
Procedure: An assay capable of measuring non-covalent complexes of topoisomerase II on closed circular DNA was performed as described in Morris et al., 2000, with modifications. When performing six reactions, 60 μL M280 streptavidin coated bead (Dynal A/S, Oslo, Norway) slurry corresponding to 600 μg beads was transferred to a 1.5 mL tube that was then placed in a Dynal MPC-E (magnetic particle concentrator) rack (Dynal A/S, Oslo, Norway) for 1 to 2 minutes until the beads had settled on the tube wall. The beads were then washed twice in the DNA binding solution supplied with the kilobase binding kit (Dynal A/S, Oslo, Norway) by repeating this step. Finally, the beads were re-suspended in 250 μL DNA binding solution. A preparation of biotin labelled plasmid DNA containing a 5-kb super coiled circular DNA molecule carrying 8 successive PNA (Peptide Nucleic Acid) linked biotin labels at one known position (pGeneGrip biotin blank vector, Gene Therapy Systems Inc., San Diego, Calif., USA) was made by mixing 220 μL distilled water and 30 μL biotinylated DNA. After mixing the beads and the DNA preparation, the sample was left overnight at room temperature under gentle agitation to assure optimal formation of the DynaBeads DNA complex. Next, the complex was washed twice in 480 μL wash buffer (10 mM TRIS-HCL, pH 7.5, 2 M NaCl, 1 mM EDTA), once in distilled water, and once in topoisomerase reaction buffer (10 mM TRIS-HCl, pH 7.9, 50 mM NaCl, 50 mM KCl, 5 mM MgCl2, 1 mM EDTA, […] BSA). Then, the beads were re-suspended in 600 μL topoisomerase II buffer and divided into 6 tubes. 100 μL reactions containing plasmid DNA coated DynaBeads, topoisomerase II buffer, 2 μg purified human topoisomerase […] and drugs were incubated for 30 minutes at 37° C. When included, ATP was present at 1 mM. […]
FIG. 7 describes the results of studies of the ability of NSC 35866 to stabilise a salt-stable complex of human topoisomerase II α on covalently closed circular DNA. Retention of salt-stable (to 2 M KCl) complexes of human topoisomerase II α on circular DNA attached to magnetic beads via biotin-streptavidin linkage was determined by eluting retained protein by adding running buffer containing 4% SDS followed by heating to 100° C. for 10 minutes. The amount of human topoisomerase II α protein retained was then determined by running the samples on 7% SDS-PAGE gels followed by straining with GelCode Blue Strain Reagent (Pierce, Rockford, Ill., USA): Lane 1, no drug; Lane 2, 200 μM ICRF-187; Lane 3, 30 μM NSC 35866; Lane 4, 100 μM NSC 35866; Lane 5, 300 μM NSC 35866; Lane 6, 1000 μM NSC 35866; Lane K, 2 μg human topoisomerase II α. […]

[2] = molecular target: T2, bisdioxopiperazine resistant Y165S mutant human topoisomerase II α (Homo sapiens, UniProt P11388, Y165S); type: biochemical; conditions: FIG. 2-B
T2 construct: made in house; host or cells: yeast (over-expressing yeast cells)
T2 sequence (P11388 whole entry Y165S): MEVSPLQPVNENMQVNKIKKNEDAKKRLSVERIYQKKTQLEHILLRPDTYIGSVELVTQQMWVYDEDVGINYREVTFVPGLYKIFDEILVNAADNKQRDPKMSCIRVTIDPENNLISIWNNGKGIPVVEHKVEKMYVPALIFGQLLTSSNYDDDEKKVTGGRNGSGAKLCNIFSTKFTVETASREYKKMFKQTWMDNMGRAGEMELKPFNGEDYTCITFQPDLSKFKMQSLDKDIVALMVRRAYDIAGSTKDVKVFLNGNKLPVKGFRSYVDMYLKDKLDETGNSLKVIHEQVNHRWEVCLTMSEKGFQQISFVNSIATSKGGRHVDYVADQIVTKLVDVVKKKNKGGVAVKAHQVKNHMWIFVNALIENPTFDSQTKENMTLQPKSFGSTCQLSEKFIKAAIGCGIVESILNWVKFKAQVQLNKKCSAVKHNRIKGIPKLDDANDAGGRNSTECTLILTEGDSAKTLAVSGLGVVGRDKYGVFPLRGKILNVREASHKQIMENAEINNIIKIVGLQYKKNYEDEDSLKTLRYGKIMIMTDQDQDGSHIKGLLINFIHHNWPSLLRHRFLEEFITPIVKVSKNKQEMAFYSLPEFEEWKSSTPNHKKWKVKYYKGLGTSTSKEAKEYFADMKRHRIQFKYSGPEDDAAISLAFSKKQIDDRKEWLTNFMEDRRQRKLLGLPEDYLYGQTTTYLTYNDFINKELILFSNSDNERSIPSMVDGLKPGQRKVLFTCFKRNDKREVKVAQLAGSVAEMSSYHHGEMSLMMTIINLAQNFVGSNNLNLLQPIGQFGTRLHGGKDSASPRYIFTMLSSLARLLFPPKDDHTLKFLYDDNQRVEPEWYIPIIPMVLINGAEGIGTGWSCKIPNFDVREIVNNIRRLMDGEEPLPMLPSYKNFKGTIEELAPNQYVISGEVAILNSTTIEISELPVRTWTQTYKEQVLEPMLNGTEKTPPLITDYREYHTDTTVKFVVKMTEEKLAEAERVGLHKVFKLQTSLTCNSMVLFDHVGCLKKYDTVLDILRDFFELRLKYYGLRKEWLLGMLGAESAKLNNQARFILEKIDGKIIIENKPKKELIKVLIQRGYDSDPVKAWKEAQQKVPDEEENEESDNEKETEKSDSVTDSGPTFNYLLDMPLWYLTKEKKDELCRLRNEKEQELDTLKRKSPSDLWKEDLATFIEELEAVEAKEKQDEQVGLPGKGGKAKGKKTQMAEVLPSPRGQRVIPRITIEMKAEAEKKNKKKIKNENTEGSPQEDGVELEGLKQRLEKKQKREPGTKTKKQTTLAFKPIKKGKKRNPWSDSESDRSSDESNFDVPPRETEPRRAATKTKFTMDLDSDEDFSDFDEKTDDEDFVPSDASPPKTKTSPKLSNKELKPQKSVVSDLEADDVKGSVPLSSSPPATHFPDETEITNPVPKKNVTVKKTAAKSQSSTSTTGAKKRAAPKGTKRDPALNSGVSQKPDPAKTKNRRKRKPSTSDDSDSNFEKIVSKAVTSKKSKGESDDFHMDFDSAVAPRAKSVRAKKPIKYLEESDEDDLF
Procedure: Topoisomerase II catalytic activity (DNA strand passage activity) was measured by using a filter-based kDNA decatenation assay as described in Jensen et al., 2002. Briefly, 200 ng ^3H labelled kDNA isolated from C. fasciculata was incubated with increasing concentrations of drug in 20 μL reaction buffer containing 10 mM TRIS-HCl pH 7.7, 50 mM NaCl, 50 mM KCl, 5 mM MgCl2, 1 mM EDTA, 15 μg/mL BSA and 1 mM ATP using two units of purified wild-type or Y165S mutant topoisomerase II α for 20 minutes at 37° C. (where one unit of activity is defined as the amount of enzyme required for complete decatenation in the absence of drug). After addition of 5× stop buffer (5% Sarkosyl, 0.0025% bromophenol blue, and 50% glycerol), unprocessed kDNA network and decatenated DNA mini-circles were separated by filtering, and the amount of unprocessed kDNA in each reaction was determined by scintillation counting.
Inhibition of human topoisomerase II α DNA strand passage activity was assessed by decatenation of tritium-labelled Crithidia fasiculata kDNA using a filter-based assay to separate unprocessed kDNA network from decatenated mini-circles.

topoisomerase II α [3] = molecular target: T1, topoisomerase II α; assay: Band depletion assay (extractable topoisomerase II α, western blot); type: cell-based; set-up: OC—NYH cells were exposed to increasing concentrations of NSC 35866 for one hour and total proteins were extracted at 0.3 M NaCl; endogenous in cells; host or cells: human small cell lung cancer OC-NYH cells; conditions: 200 μM, OC—NYH cells, one hour
Procedure: Band depletion assay was performed essentially as described in Sehested et al., 1998. The amount of extractable topoisomerase II α was detected by the ECL detection method (Amersham, Buckinghamshire, United Kingdom). OC—NYH cells were exposed to increasing concentrations of NSC 35866 for one hour and total proteins were extracted at 0.3 M NaCl. For detection of topoisomerase II α, a polyclonal primary antibody (Bio Trend, Cologne, Germany) was used. Horseradish peroxidase linked anti-rabbit antibody (Amersham, Buckinghamshire, United Kingdom) was used as secondary antibody.
FIG. 10 describes the results of studies of the ability of NSC 35866 to trap human topoisomerase II α as a non-extractable complex on DNA in a dose dependent manner. The ability of NSC 35866 to stabilise topoisomerase II α as a non-extractable complex on DNA in human SCLC OC—NYH cells was assessed using the band depletion assay as described herein. The amounts of topoisomerase II α was visualised by western blotting using a topoisomerase II α specific primary antibody: Lane 1, no drug; Lane 2, 200 μM ICRF-187; Lane 3, 200 μM NSC 35866; Lane 4, 500 μM NSC 35866; Lane 5, 1000 μM NSC 35866. Band depletion of the topoisomerase II α isoform caused by NSC 35866 was detected in two independent experiments.

topoisomerase II α [4] = molecular target: T1, topoisomerase II α; assay: Topoisomerase II ATPase assay (coupled, NADH oxidation); type: biochemical; set-up: made in house; host or cells: yeast (over-expressing yeast cells)
Procedure: The reaction was monitored spectrophotometrically at 340 nm using a Bio-Tek EL808 Ultra Micro plate Reader connected to a computer with KC4 Software installed (Bio-Tek Instruments, U.S.). The change in absorbance was related to ADP production using A340^1M=6220 cm^−1. […] The rate of ATP hydrolysis, V, was determined from the linear part of the curve.
The steady-state rate of ATP hydrolysis was determined using a coupled ATPase assay as described herein. […] Error bars represent SEM of two independent experiments each performed in duplicate.
The steady-state rate of ATP hydrolysis was determined as described in for FIG. 3 and as described herein. In this analysis, the rate of ATP hydrolysis in the absence of drug was set to one in all experiments. Error bars represent SEM of 2 or 3 independent experiments each preformed in duplicate.

T1 sequence (P11388 whole entry): as the sequence (P11388 whole entry Y165S) above, with S165Y counted along it

retention of topoisomerase II on DNA beads, in words (topoisomerase II α [1]; in the absence of ATP): strongly depended on ATP
effect on amount of extractable topoisomerase II α, in words (topoisomerase II α [3]): clearly reduced
ATPase activity relative to that seen in the absence of drug (topoisomerase II α [4]; 100 μM, in the absence of DNA): 75%
IC50 (topoisomerase II α [4]; in the presence of DNA (DNA-stimulated), read-out: IC50, inhibition of ATPase activity): 1 µM
Structure (SMILES): C[C@@H](CN1CC(=O)NC(=O)C1)N1CC(=O)NC(=O)C1 [ICRF-187, (+)-1,2-bis(3,5-dioxopiperazinyl-1-yl)propane, reference compound]
retention of topoisomerase II on DNA beads after 2 M KCl wash, in words (topoisomerase II α [1]; 200 μM, with ATP): strongly induced the retention of topoisomerase II to the beads
inhibition of catalytic activity of the Y165S protein, in words [2]: incapable of inhibiting the catalytic activity of the Y165S protein
